In publication PMC7496931, “Activation of Sirtuin 2 Inhibitors Employing Photoswitchable Geometry and Aqueous Solubility” (Chemmedchem, 2020):

Legend:
[1] = UV/Vis spectra and half-life of thermal Z→E isomerization; assay type: physicochemical; parameters: k of thermal Z→E isomerization (non-linear regression): unit not given here; details: for λΔ/max absorption maximum at thermal equilibrium: 50 μM in DMSO/assay buffer; for k of thermal Z→E isomerization (non-linear regression): 50 μM
Experimental: (§1) Photochemistry: All photoisomerization experiments were conducted under ruby light of 630 nm and total exclusion of daylight. Illumination was executed using a Bio‐Link 254 Crosslinker from Vilber‐Lourmat equipped with six Vilber‐Lourmat T8‐L lamps (8 W, 365 nm). Visible light radiation of 630 nm (ruby) and 452 nm (blue) was derived from a Paulmann FlexLED 3D strip. All compounds were irradiated in solution using spectrophotometric grade solvents. Photoisomerization and UV/Vis‐spectra measurement was conducted in quartz glass cuvettes (114‐QS, Hellma Analytics) at room temperature.
UV/Vis Spectra and Half-Life of Thermal Isomerization
The half-life of the thermal Z→E isomerization after 5 minutes of 365 nm irradiation was determined by UV/Vis-spectroscopy. Therefore, solutions of the respective compounds (50 µM) in 5%, 50% or 90% DMSO in enzyme assay buffer (v/v) were prepared. An initial spectrum of the thermal equilibrium was recorded. After 5 minutes of irradiation with 365 nm the increase of absorbance at the thermal equilibrium maximum (λ∆max) was recorded as exemplified by compound 15c (Figure S3). Absorbance at λ = λ ∆max was plotted as a function of time. Non-linear regression yielded the half-life of the thermal Z→E isomerization (Table S1). For extrapolation of the reaction kinetics, the plateau value was set to the initial absorbance at λ=λ∆max. The following equation was used for non-linear regression:
y = (y0 − Plateau)e−kx + Plateau
Figure S3: Left: UV-Vis spectrum of 15c (50 µM) in assay buffer (5% DMSO, v/v) at the thermal equilibrium (∆) and the photostationary state (PSS) after UV irradiation (365 nm). Right:
Absorbance of 15c (50 µm) in assay buffer (5% DMSO, v/v) at λ∆max = 328 nm after 5 minutes of UV (365 nm) irradiation.
(1 picture or pasted object on this page, not shown here)

[2] = Photoisomer distribution (PSD) by HPLC-ELSD; assay type: physicochemical; details: for E/Z [%] PSD @ 365 nm / PSD after 365 nm radiation, share of the Z isomer: after 365 nm irradiation; for E/Z [%] PSD @ 365 nm / E/Z [%] PSD @ 452 nm: HPLC in MeOH/water, ELSD; for E/Z [%] PSD @ 452 nm: after 452 nm irradiation
Experimental: as §1

[3] = tested on: urinary bladder cancer cell line RT‐4; test: Cell-based activity assay (western blot of acetylation levels); parameters: species or system human; details: RT-4 cells, 50 μM, 24 h, compounds irradiated (365 nm) prior to incubation
Experimental: Reductive stability of 15 c, 15 f and 20 a in the presence of the cellular reductant glutathione (5 mM) was confirmed by HPLC analysis (Figure S5, Table S2). For the cell‐based activity assay, we illuminated the compounds solved in DMSO with UV light (365 nm) prior to incubation with the cells. […] As expected, 15 c and 15 f increased the levels of acetylated lysines H3K18 and H3K56, which are both affirmed substrates of Sirt2. In addition, we found H4K8 hyperacetylation even though this site is usually not affected by sirtuin catalysed deacetylation, indicating a further mode of action. […] In Figure 6, we show the relative results, whereby the acetylation product was related to total target protein and to the vehicle control. Again, we found an increase in acetylated histones induced by 15 c and 15 f which proves activity of these two compounds in living cells.
Figure 6 Relative acetylation levels of protein targets after incubation with compounds at 50 μM for 24 h in urinary bladder cancer cell line RT‐4 (mean of n=2). […]
Cell-Based Activity Assay
To qualify inhibitory activity of compounds on sirtuins we used the western blot technique.
Therefore, we used precast “Mini-Protean TGX Stain-Free Gels” and corresponding “Trans-Blot Turbo Transfer Pack Mini” PVDF membranes (Biorad, Germany). For sample preparation, […]
Sirt2 in our cell line stock (Data not shown), obtained from “Deutsche Sammlung von Mikroorganismen und Zellkulturen” (DSMZ), Germany. Cells were grown in RPMI 1640 cell medium supplemented with 10% fetal bovine serum and 1% penicillin/streptomycin purchased from PAN Biotec, Germany and stored in a humidified incubator at 37 °C with 5% CO2 atmosphere. For sample preparation, cells were harvested with Trypsin/EDTA and counted in a Beckman’s Coulter Counter. In six well plates, […] were seeded out in 3 mL medium and let allow to attach for 24 h. Stock solutions of compounds (1000-fold) were prepared with DMSO and illuminated with UV light (365 nm) for 5 min. Then, cells were exposed to compounds at a final concentration of 50 µM and incubated for 24 h. Cells were detached with Trypsin/EDTA and washed with phosphate buffered saline (PBS) by centrifugation at 500 g for 5 min and resuspended in PBS. Cell pellets were lysed with a lysis buffer containing Tris […]
and freshly added 1% protease inhibitor cocktail (Sigma Aldrich, Germany) on ice, followed by sonification for 30 minutes. The protein concentration was determined by the Bradford method against bovine serum albumin (BSA) as standard. Each slot of the precast gel was loaded with 30 µg protein followed by an electrophoretic separation and a transfer onto PVDF membranes.
Blots were blocked with 10% non-fat milk powder in Tris-buffered saline containing 20 mM Tris, 145 mM NaCl and Tween 0.5% (TBST) for 2 h and incubated with primary antibody in 1:1000 dilutions (in TBST and 1% BSA) over night at 4 °C. After washing procedure, blots were incubated with secondary antibody conjugated with horse radish peroxidase (1:5000 in TBST and 1% BSA) for 2 h. All used antibodies were obtained from cell signalling (UK): anti ac.H3K9 […]
anti ac.α-tubulin (#5335), anti α-tubulin (#2125) and anti rabbit-HRP (#7074). Target protein bands were detected with Clarity Western ECL Substrate (Biorad, Germany) and recorded at an Advanced Fluorescence Imager (INTAS, Germany). Band intensity was related to internal standard of the TGX Stain-Free gels as loading control.
In order to verify the conformations of Z-15c and Z-15f obtained from our molecular docking experiments, a two-dimensional dihedral analysis was performed using MOE with 3-(2-phenyldiazenyl)-pyridine as reference compound. Both dihedrals were rotated by 360° in 5° steps. At each step, the potential energy was calculated with AMBER force field parameters and AM1-BCC partial charges applied. The diazenyl double bond of both compounds is nearly […]

[4] = 50 % DMSO (v/v) in assay buffer
[5] = 90 % DMSO (v/v) in assay buffer

SMILES | melting point | E/Z [%] PSD @ 365 nm [2] | E/Z [%] PSD @ 452 nm [2] | λΔ/max absorption maximum at thermal equilibrium ([1]; 50 % DMSO (v/v)) | k of thermal Z→E isomerization (non-linear regression) [1, 4] | other results
NC(=O)c1cncc(/N=N/c2c(O)ccc3ccccc23)c1 [7 c] | 260 °C |  |  |  |  | 
Cc1cc(/N=N/c2cncc(C(N)=O)c2)cc(C)c1N [7 f] | 255 °C |  |  |  |  | 
CC(=O)Nc1c(C)cc(/N=N/c2cncc(C(N)=O)c2)cc1C [9 a] |  |  |  |  |  | λΔ/max absorption maximum at thermal equilibrium ([1]; 5 % DMSO (v/v)): 329 nm; k of thermal Z→E isomerization (non-linear regression) ([1]; 5 % DMSO (v/v) in assay buffer): 0.1176
CCCC(=O)Nc1c(C)cc(/N=N/c2cncc(C(N)=O)c2)cc1C [9 b] |  | 10/90 | 86/14 |  |  | λΔ/max absorption maximum at thermal equilibrium ([1]; 5 % DMSO (v/v)): 332 nm; k of thermal Z→E isomerization (non-linear regression) ([1]; 5 % DMSO (v/v) in assay buffer): 0.08608
CCCCCC(=O)Nc1c(C)cc(/N=N/c2cncc(C(N)=O)c2)cc1C [9 c] |  | 9/91 | 87/13 | 339 nm | 0.043 | 
CCCCCCCC(=O)Nc1c(C)cc(/N=N/c2cncc(C(N)=O)c2)cc1C [9 d] |  | 9/91 | 88/12 |  |  | λΔ/max absorption maximum at thermal equilibrium ([1]; 90 % DMSO (v/v)): 345 nm; k of thermal Z→E isomerization (non-linear regression) [1, 5]: 0.03293
CCCCCCCCCC(=O)Nc1c(C)cc(/N=N/c2cncc(C(N)=O)c2)cc1C [9 e] |  | 10/90 | 90/10 |  |  | λΔ/max absorption maximum at thermal equilibrium ([1]; 90 % DMSO (v/v)): 344 nm; k of thermal Z→E isomerization (non-linear regression) [1, 5]: 0.03173
CCCCCCCCCCCC(=O)Nc1c(C)cc(/N=N/c2cncc(C(N)=O)c2)cc1C [9 f] |  | 10/90 | 91/9 |  |  | λΔ/max absorption maximum at thermal equilibrium ([1]; 90 % DMSO (v/v)): 346 nm; k of thermal Z→E isomerization (non-linear regression) [1, 5]: 0.03286
CCCCCCCCCCCCCC(=O)Nc1c(C)cc(/N=N/c2cncc(C(N)=O)c2)cc1C [9 g] | 254.1 °C | 14/86 | 87/13 |  |  | λΔ/max absorption maximum at thermal equilibrium ([1]; 90 % DMSO (v/v)): 345 nm; k of thermal Z→E isomerization (non-linear regression) [1, 5]: 0.02709
Cc1cc(/N=N/c2cncc(C(N)=O)c2)cc(C)c1NC(=O)c1ccccc1 [9 h] | 267 °C (dec.) | 14/86 | 91/9 | 337 nm | 0.9524 | 
Cc1cc(/N=N/c2cncc(C(N)=O)c2)cc(C)c1NC(=O)c1ccc(F)cc1 [9 i] |  | 12/88 | 91/9 | 337 nm | 1.193 | 
Cc1cc(/N=N/c2cncc(C(N)=O)c2)cc(C)c1NC(=O)c1ccc(-c2cccs2)cc1 [9 j] | 306.5 °C (dec.) | 29/71 | 93/7 | 330 nm | 1.212 | 
Cc1cc(/N=N/c2cncc(C(N)=O)c2)cc(C)c1NC(=O)C12CC3CC(CC(C3)C1)C2 [9 k] |  | 14/86 | 89/11 | 339 nm | 0.1022 | 
CC(C)(C)OC(=O)c1ccc(/N=N/c2cncc(C(N)=O)c2)cc1 [15 a] |  | 31/69 | 94/6 | 325 nm | 0.003905 | PSD after 365 nm radiation, share of the Z isomer [2]: 60–70%
CC(C)(C)OC(=O)Cc1ccc(/N=N/c2cncc(C(N)=O)c2)cc1 [15 b] |  | 6/94 | 90/10 | 332 nm | 0.02959 | 
NC(=O)c1cncc(/N=N/c2ccc(Br)cc2)c1 [15 d] |  | 9/91 | 91/9 |  |  | λΔ/max absorption maximum at thermal equilibrium ([1]; 5 % DMSO (v/v)): 332 nm; k of thermal Z→E isomerization (non-linear regression) ([1]; 5 % DMSO (v/v) in assay buffer): 0.003156
CCCCNC(=O)c1ccc(/N=N/c2cncc(C(N)=O)c2)cc1 [15 e] |  | 40/60 | 89/11 | 326 nm | 0.002728 | PSD after 365 nm radiation, share of the Z isomer [2]: 60–70%
NC(=O)c1cncc(/N=N/c2ccc(C#CCCCCO)cc2)c1 [15 g] |  | 25/75 | 89/11 | 355 nm | 0.0139 | 
CC(C)(O)C#Cc1ccc(/N=N/c2cncc(C(N)=O)c2)cc1 [15 h] | 223.3 °C | 23/77 | 92/8 | 350 nm | 0.00906 | 
NC(=O)c1cncc(OCc2cccc(/N=N/c3ccc(OCc4ccccc4)cc3)c2)c1 [20 a] |  | 4/96 | 80/20 | 352 nm | 0.0207 | acetylation level of α-tubulin [3]: none of the compounds influenced; activity regarding the examined substrates (acetylation) [3]: did not exert any activity; expression of total histone H3 [3]: no effect; expression of total α-tubulin protein [3]: no effect; total H4 [3]: slight increase
NC(=O)c1cncc(OCc2cccc(/N=N/c3ccc(F)cc3)c2)c1 [20 b] | 202.1 °C | 2/98 | 83/17 | 324 nm |  | 
C#Cc1ccc(/N=N/c2cccc(COc3cncc(C(N)=O)c3)c2)cc1 [20 c] |  |  |  | 340 nm |  | 
